# Laboratory results: ChEMBL document CHEMBL2086308, “Cytotoxic 2-phenyacrylnitriles, the importance of the cyanide moiety and discovery of potent broad spectrum cytotoxic agents” (2012)
# Assays:
# Format in all cases: functional
# [1] = test system: NCI-H460; assay: Growth inhibition of human H460 cells assessed as reduction in cell growth after 72 hrs by MTT assay; settings: NCI-H460, 72 h
# [2] = test system: HT-29; assay: Growth inhibition of human HT-29 cells assessed as reduction in cell growth after 72 hrs by MTT assay; settings: HT-29, 72 h
# [3] = Growth inhibition of human SJ-G2 cells assessed as reduction in cell growth after 72 hrs by MTT assay; settings: SJ-G2, 72 h
# [4] = test system: SW480; assay: Growth inhibition of human SW480 cells assessed as reduction in cell growth after 72 hrs by MTT assay; settings: SW480, 72 h
# [5] = test system: DU-145; assay: Growth inhibition of human DU145 cells assessed as reduction in cell growth after 72 hrs by MTT assay; settings: DU-145, 72 h
# [6] = test system: MIA PaCa-2; assay: Growth inhibition of human MIAPaCa2 cells assessed as reduction in cell growth after 72 hrs by MTT assay; settings: MIA PaCa-2, 72 h
# [7] = test system: A-431; assay: Growth inhibition of human A431 cells assessed as reduction in cell growth after 72 hrs by MTT assay; settings: A-431, 72 h
# [8] = test system: A2780; assay: Growth inhibition of human A2780 cells assessed as reduction in cell growth after 72 hrs by MTT assay; settings: A2780, 72 h
# [9] = test system: MCF7; assay: Growth inhibition of human MCF7 cells assessed as reduction in cell growth after 72 hrs by MTT assay; settings: MCF7, 72 h
# [10] = Growth inhibition of human BE(2)-C cells assessed as reduction in cell growth after 72 hrs by MTT assay
# [11] = test system: DU-145; assay: Growth inhibition of human DU145 cells assessed as reduction in cell growth at 25uM after 72 hrs by MTT assay; settings: DU-145, 72 h, read-out: GI
# [12] = test system: SW480; assay: Growth inhibition of human SW480 cells assessed as reduction in cell growth at 25uM after 72 hrs by MTT assay; settings: SW480, 72 h, read-out: GI
# [13] = test system: A-431; assay: Growth inhibition of human A431 cells assessed as reduction in cell growth at 25uM after 72 hrs by MTT assay; settings: A-431, 72 h, read-out: GI
# [14] = test system: NCI-H460; assay: Growth inhibition of human H460 cells assessed as reduction in cell growth at 25uM after 72 hrs by MTT assay; settings: NCI-H460, 72 h, read-out: GI
# [15] = Growth inhibition of human BE(2)-C cells assessed as reduction in cell growth at 25uM after 72 hrs by MTT assay; settings: read-out: GI
# [16] = test system: MCF7; assay: Growth inhibition of human MCF7 cells assessed as reduction in cell growth at 25uM after 72 hrs by MTT assay; settings: MCF7, 72 h, read-out: GI
# [17] = Growth inhibition of mouse SMA cells assessed as reduction in cell growth at 25uM after 72 hrs by MTT assay; settings: read-out: GI
# [18] = test system: HT-29; assay: Growth inhibition of human HT-29 cells assessed as reduction in cell growth at 25uM after 72 hrs by MTT assay; settings: HT-29, 72 h, read-out: GI
# [19] = test system: MIA PaCa-2; assay: Growth inhibition of human MIAPaCa2 cells assessed as reduction in cell growth at 25uM after 72 hrs by MTT assay; settings: MIA PaCa-2, 72 h, read-out: GI
# [20] = Growth inhibition of human SJ-G2 cells assessed as reduction in cell growth at 25uM after 72 hrs by MTT assay; settings: SJ-G2, 72 h, read-out: GI
# [21] = test system: A2780; assay: Growth inhibition of human A2780 cells assessed as reduction in cell growth at 25uM after 72 hrs by MTT assay; settings: A2780, 72 h, read-out: GI
# [22] = Growth inhibition of mouse SMA cells assessed as reduction in cell growth after 72 hrs by MTT assay
SMILES,GI50 [1],GI50 [2],GI50 [3],GI50 [4],GI50 [5],GI50 [6],GI50 [7],GI50 [8],GI50 [9],GI50 [10],GI50 [22],further results
N#C/C(=C\c1ccc(F)cc1)c1ccc(Cl)c(Cl)c1,10 µM,9.3 µM,16 µM,5.6 µM,18 µM,11 µM,10 µM,9.5 µM,6.5 µM,13 µM,,
O=C(O)/C(=C\c1ccc([N+](=O)[O-])cc1)c1ccc(Cl)c(Cl)c1,,,,,,,,,,,,inhibition of growth at 25 µM [11]: < 10%; inhibition of growth at 25 µM [12]: < 10%; inhibition of growth at 25 µM [13]: < 10%; inhibition of growth at 25 µM [14]: < 10%; inhibition of growth at 25 µM [15]: < 10%; inhibition of growth at 25 µM [16]: 11%; inhibition of growth at 25 µM [17]: < 10%; inhibition of growth at 25 µM [18]: 28%; inhibition of growth at 25 µM [19]: < 10%; inhibition of growth at 25 µM [20]: < 10%; inhibition of growth at 25 µM [21]: < 10%
Cc1ccc2[nH]cc(/C=C(\C#N)c3ccc(Cl)c(Cl)c3)c2c1,3 µM,2.8 µM,5.3 µM,4.7 µM,7.4 µM,3.7 µM,3 µM,3.2 µM,3.7 µM,3.4 µM,4.1 µM,
COc1ccc(/C=C(\C#N)c2ccc(Cl)c(Cl)c2)cc1,0.7 µM,0.52 µM,1.5 µM,1.4 µM,1.4 µM,0.7 µM,0.6 µM,0.7 µM,0.6 µM,2.7 µM,,
N#C/C(=C\c1ccc(C(F)(F)F)cc1)c1ccc(Cl)c(Cl)c1,36 µM,35 µM,41 µM,49 µM,45 µM,35 µM,53 µM,41 µM,31 µM,43 µM,45 µM,
N#C/C(=C\c1ccc(CO)o1)c1ccc(Cl)c(Cl)c1,,,,,,,,,,,,inhibition of growth at 25 µM [11]: < 10%; inhibition of growth at 25 µM [12]: < 10%; inhibition of growth at 25 µM [13]: < 10%; inhibition of growth at 25 µM [14]: 30%; inhibition of growth at 25 µM [15]: < 10%; inhibition of growth at 25 µM [16]: 27%; inhibition of growth at 25 µM [17]: 16%; inhibition of growth at 25 µM [18]: 41%; inhibition of growth at 25 µM [19]: < 10%; inhibition of growth at 25 µM [20]: 27%; inhibition of growth at 25 µM [21]: 25%
N#C/C(=C\c1ccco1)c1ccc(Cl)c(Cl)c1,52 µM,36 µM,50 µM,45 µM,42 µM,46 µM,39 µM,38 µM,7 µM,38 µM,36 µM,
N#C/C(=C\c1c[nH]c2ccc(C#N)cc12)c1ccc(Cl)c(Cl)c1,,,,,,,,,,,,inhibition of growth at 25 µM [11]: 18%; inhibition of growth at 25 µM [12]: 43%; inhibition of growth at 25 µM [13]: 34%; inhibition of growth at 25 µM [14]: 33%; inhibition of growth at 25 µM [15]: 50%; inhibition of growth at 25 µM [16]: 38%; inhibition of growth at 25 µM [17]: 44%; inhibition of growth at 25 µM [18]: 57%; inhibition of growth at 25 µM [19]: 43%; inhibition of growth at 25 µM [20]: 44%; inhibition of growth at 25 µM [21]: 47%
N#C/C(=C\c1cc2ccccc2o1)c1ccc(Cl)c(Cl)c1,,,,,,,,,,,,inhibition of growth at 25 µM [11]: 14%; inhibition of growth at 25 µM [12]: 43%; inhibition of growth at 25 µM [13]: 54%; inhibition of growth at 25 µM [14]: 36%; inhibition of growth at 25 µM [15]: 20%; inhibition of growth at 25 µM [16]: 40%; inhibition of growth at 25 µM [17]: 55%; inhibition of growth at 25 µM [18]: 43%; inhibition of growth at 25 µM [19]: 47%; inhibition of growth at 25 µM [20]: 46%; inhibition of growth at 25 µM [21]: 49%
N#C/C(=C\c1c[nH]c2ccccc12)c1ccc(Cl)c(Cl)c1,1 µM,0.85 µM,1.7 µM,2.1 µM,3.1 µM,1.6 µM,0.8 µM,0.9 µM,1.3 µM,1 µM,1.3 µM,
N#C/C(=C\c1ccc([N+](=O)[O-])cc1)c1ccc(Cl)c(Cl)c1,69 µM,3.1 µM,14 µM,8.4 µM,18 µM,27 µM,7.1 µM,12 µM,0.127 µM,8.9 µM,,
Cc1[nH]c2ccccc2c1/C=C(\C#N)c1ccc(Cl)c(Cl)c1,2.2 µM,1.9 µM,4 µM,3.8 µM,5.6 µM,2.4 µM,2.1 µM,2.2 µM,2.8 µM,2 µM,2.9 µM,
N#C/C(=C\c1ccc2[nH]ccc2c1)c1ccc(Cl)c(Cl)c1,0.39 µM,0.36 µM,0.83 µM,0.67 µM,1.04 µM,0.5 µM,0.37 µM,0.41 µM,0.23 µM,0.33 µM,0.74 µM,
N#C/C(=C\c1c[nH]c2ccc(Cl)cc12)c1ccc(Cl)c(Cl)c1,8.7 µM,7.1 µM,9.7 µM,8.8 µM,12 µM,11 µM,7.7 µM,7.4 µM,2.3 µM,8.6 µM,6.7 µM,
N#C/C(=C\c1c[nH]c2ccc(Br)cc12)c1ccc(Cl)c(Cl)c1,7.5 µM,7 µM,10 µM,8.2 µM,13 µM,9 µM,7.3 µM,6.8 µM,6.9 µM,7 µM,9.2 µM,
N#C/C(=C\c1c[nH]c2c1ccc1ccccc12)c1ccc(Cl)c(Cl)c1,5 µM,4.2 µM,6.8 µM,7.5 µM,8.7 µM,6.1 µM,3 µM,3.7 µM,4 µM,3.8 µM,5.9 µM,
